# Literature values as cited in PMC9669016, “First-in-human phase Ia study of the PI3Kα inhibitor CYH33 in patients with solid tumors” (Nature Communications, 2022).
# “And” between values parts separate entries of the source, which are not always exact repeats. Equal values may be shown once.
# Legend:
# [1] = tested on: patients with PIK3CA-mutated HR+/HER2– breast cancer / PIK3CA-altered solid tumors; settings: cited from earlier work
# [2] = tested on: KYSE410, KYSE510, EC104, EC063, EC074 xenograft models; parameters: method as in Investigator's Brochure (IB) 12; settings: 12.5 mg/kg; 9 values for 5 models, model column not assignable; ref Investigator's Brochure (IB) 12; listed as BYL-719; cited from earlier work
smiles,measurement,setting,value
Cc1nc(NC(=O)N2CCC[C@H]2C(N)=O)sc1-c1ccnc(C(C)(C)C(F)(F)F)c1 [alpelisib],frequency of diarrhea,[1],57.7%
same,incidence of rash,[1],64.0%
same,improvement in median overall survival,"[1]; phase III SOLAR-1, alpelisib plus fulvestrant vs fulvestrant plus placebo, advanced PIK3CA-mutated HR+/HER2– breast cancer",7.9 month
same,incidence of rash with prophylactic anti-rash medication,[1]; within the first 4–8 weeks of treatment,24.6%
same,T/C% (tumor/control ratio),[2],29.09% and 47.62%
